In patent US20230201870A1, “PLASMA COATING METHOD AND APPARATUS FOR BIOLOGICAL SURFACE MODIFICATION” (MOLECULAR PLASMA GROUP S.A., priority 2020, published 2023):
Like-named read-outs stand apart in the source and are kept apart here.

How the values were obtained:
Type in all cases: cell-based
[1] = tested on: Bacteriophage MS2; assay: Viral load reduction test (ASTM E2721-16, MS2 in place of Influenza A) on plasma-coated substrate
[2] = tested on: Escherichia coli (gram-negative); assay: Antibacterial activity of plasma-coated material (OECD guideline, ISO 22197/20743), gram-negative; details: E. coli
[3] = tested on: Staphylococcus aureus (gram-positive); assay: Antibacterial activity of plasma-coated material (OECD guideline, ISO 22197/20743), gram-positive; details: S. aureus
[4] = plasma coating from precursor on Tyvek substrate, MS2 phages, vs untreated control, LOD = limit of detection
[5] = PPNW substrate (polypropylene nonwoven, 25 g/m^2)
[6] = synthetic textile substrate (Tyvek)

Row | Molecule | LOG Reduction [1, 4] | % Gram-bacteria reduced [2, 5] | Gram-log reduction [2, 5] | % Gram-bacteria reduced [2, 6] | Gram-log reduction [2, 6] | %Gram+ bacteria reduced [3, 5] | Gram+ log reduction [3, 5] | %Gram+ bacteria reduced [3, 6] | Gram+ log reduction [3, 6] | LOG Reduction [1]
1 | C=CC(=O)NCCC[N+](C)(C)C.[Cl-] [APTAC, (3-Acrylamidopropyl)trimethylammonium chloride] | 2.1 log | – | – | – | – | – | – | – | – | –
2 | O=C(O)CC(O)(CC(=O)O)C(=O)O [Citric acid] | > 5.0 (LOD) log | > 99.999% | > 5.0 log | 97.5% | 1.6 log | > 99.995% | > 4.3 log | > 99.98% | > 3.8 log | –
3 | C=C(C)C(=O)OCCN(C)C [DIMAEMA, 2-(N,N-dimethylamino)ethyl methacrylate] | – | > 99.9996% | > 5.4 log | 20.6% | 0.1 log | > 99.994% | > 4.2 log | > 99.95% | > 3.3 log | –
4 | CCCCCCCCCCCCCCCCCC[N+](C)(C)CCC[Si](OC)(OC)OC.[Cl-] [SiQAM, Dimethyloctadecyl[3-(trimethoxysilyl)propyl] ammonium chloride solution] | 1.56 log | > 99.9996% | > 5.4 log | > 98.7% | > 1.9 log | > 99.994% | > 4.2 log | > 99.95% | > 3.3 log | –
5 | Benzalkonium chloride [reference compound] | – | – | 5.4 log | – | 1.9 log | > 99.994% | > 4.2 log | > 99.5% | > 3.3 log | > 3.8 (LOD) log
